From US7183276B2, “Azole compounds” (Takeda Pharmaceutical Company Limited, priority 2002, dated 2007)

Row | SMILES | melting point
1 | CCOP(=O)(Cc1ccc(NC(=O)CCc2oc(-c3cccs3)nc2-c2ccc(Cl)cc2)cc1)OCC | 164 to 165 °C
2 | CCOP(=O)(Cc1ccc(NC(=O)CCc2sc(NC(=O)c3ccccc3)nc2-c2ccc(Cl)cc2)cc1)OCC | 171 to 172 °C
3 | Cc1ccc(CNC(=O)CCc2oc(-n3cnc4ccccc43)nc2-c2ccc(Cl)cc2)cc1 [Example 146, 3-[2-(1H-benzimidazol-1-yl)-4-(4-chlorophenyl)-5-oxazolyl]-N-(4-methylbenzyl)propionamide] | 210 to 212 °C
4 | CCOP(=O)(OCC)C(F)c1ccc(NC(=O)CCc2oc(-n3cnc4ccccc43)nc2-c2ccc(Cl)cc2)cc1 (centres unmarked) | 152 to 155 °C
5 | Cc1ccc(Sc2nc(-c3ccc(Cl)cc3)c(CCC(N)=O)o2)cc1 [Example 10, 3-[4-(4-chlorophenyl)-2-[(4-methylphenyl)sulfanyl]-5-oxazolyl]propionamide] | 155 to 156 °C
6 | CCOP(=O)(Cc1ccc(NC(=O)CCc2sc(N)nc2-c2ccc(Cl)cc2)cc1)OCC | 177 to 178 °C
7 | CCOP(=O)(Cc1ccc(NC(=O)CCc2oc(Sc3ccccn3)nc2-c2ccc(Cl)cc2)cc1)OCC | 146 to 147 °C
8 | COc1ccccc1CNC(=O)CCc1oc(-n2cnc3ccccc32)nc1-c1ccc(Cl)cc1 [Example 133, 3-[2-(1H-benzimidazol-1-yl)-4-(4-chlorophenyl)-5-oxazolyl]-N-(2-methoxybenzyl)propionamide] | 210 to 211 °C
9 | CC(C)(C)c1ccc(CNC(=O)CCc2oc(-n3cnc4ccccc43)nc2-c2ccc(Cl)cc2)cc1 [Example 144, 3-[2-(1H-benzimidazol-1-yl)-4-(4-chlorophenyl)-5-oxazolyl]-N-[4-tert-butylbenzyl]propionamide] | 170 to 171 °C
10 | O=C(CCc1oc(-n2cnc3ccccc32)nc1-c1ccc(Cl)cc1)NCc1ccccc1C(F)(F)F [Example 157, 3-[2-(1H-benzimidazol-1-yl)-4-(4-chlorophenyl)-5-oxazolyl]-N-[2-(trifluoromethyl)benzyl]propionamide] | 208 to 209 °C
11 | CCOP(=O)(Cc1ccc(NC(=O)CCc2oc(-c3ccc4ccccc4c3)nc2-c2ccc(Cl)cc2)cc1)OCC | 191 to 192 °C
12 | COc1ccccc1NC(=O)CCc1oc(-n2cnc3ccccc32)nc1-c1ccc(Cl)cc1 [Example 115, 3-[2-(1H-benzimidazol-1-yl)-4-(4-chlorophenyl)-5-oxazolyl]-N-(2-methoxyphenyl)propionamide] | 194 to 195 °C
13 | NC(=O)CCc1oc(-c2ccc3ccccc3c2)nc1-c1ccc(Cl)cc1 [Example 24, 3-[4-(4-chlorophenyl)-2-(2-naphthyl)-5-oxazolyl]propionamide] | 206 to 207 °C
14 | CCOP(=O)(Cc1ccc(NC(=O)CCc2oc(NCc3ccccc3)nc2-c2ccc(Cl)cc2)cc1)OCC | 156 to 157 °C
15 | O=C(CCc1oc(-n2cnc3ccccc32)nc1-c1ccc(Cl)cc1)Nc1ccc(CN2CCCCC2)cc1 [Example 88, 3-[2-(1H-benzimidazol-1-yl)-4-(4-chlorophenyl)-5-oxazolyl]-N-{4-[(1-piperidinyl)methyl]phenyl}propionamide] | 194 to 195 °C
16 | O=C(CCc1oc(-n2cnc3ccccc32)nc1-c1ccc(Cl)cc1)Nc1cccc(CO)c1 [Example 108, 3-[2-(1H-benzimidazol-1-yl)-4-(4-chlorophenyl)-5-oxazolyl]-N-[3-(hydroxymethyl)phenyl]propionamide] | 206 to 207 °C
17 | O=C(CCc1oc(-n2cnc3ccccc32)nc1-c1ccc(Cl)cc1)NCc1ccc(C(F)(F)F)cc1 [Example 138, 3-[2-(1H-benzimidazol-1-yl)-4-(4-chlorophenyl)-5-oxazolyl]-N-[4-(trifluoromethyl)benzyl]propionamide] | 194 to 195 °C
18 | COc1ccc(NC(=O)CCc2oc(-n3cnc4ccccc43)nc2-c2ccc(Cl)cc2)cc1 [Example 114, 3-[2-(1H-benzimidazol-1-yl)-4-(4-chlorophenyl)-5-oxazolyl]-N-(4-methoxyphenyl)propionamide] | 240 to 241 °C
19 | O=C(CCc1oc(-n2cnc3ccccc32)nc1-c1ccc(Cl)cc1)N1CCN(c2ccccn2)CC1 [Example 93, 1-{3-[2-(1H-benzimidazol-1-yl)-4-(4-chlorophenyl)-5-oxazolyl]propanoyl}-4-(2-pyridinyl)piperazine] | 174 to 176 °C
20 | NC(=O)CCCc1oc(-c2ccccc2)nc1-c1ccc(Cl)cc1 [Example 52, 4-[4-(4-chlorophenyl)-2-phenyl-5-oxazolyl]butanamide] | 168 to 169 °C
21 | CCOP(=O)(Cc1ccc(NC(=O)CCc2oc(Cl)nc2-c2ccc(Cl)cc2)cc1)OCC | 137 to 138 °C
22 | CCOP(=O)(CCc1ccc(NC(=O)CCCc2oc(-n3cnc4ccccc43)nc2-c2ccc(Cl)cc2)cc1)OCC | 116 to 117 °C
23 | O=C(CCc1oc(-n2cnc3ccccc32)nc1-c1ccc(Cl)cc1)Nc1ccc(OC(F)(F)F)cc1 [Example 122, 3-[2-(1H-benzimidazol-1-yl)-4-(4-chlorophenyl)-5-oxazolyl]-N-[4-(trifluoromethoxy)phenyl]propionamide] | 174 to 175 °C
24 | CN(C)c1ccc(NC(=O)Cc2ccc(NC(=O)CCc3oc(-n4cnc5ccccc54)nc3-c3ccc(Cl)cc3)cc2)cc1 [Example 140, 2-[4-(N-{3-[2-(1H-benzimidazol-1-yl)-4-(4-chlorophenyl)-5-oxazolyl]propanoyl}amino)phenyl]-N-[4-(dimethylamino)phenyl]acetamide] | 169 to 170 °C
25 | O=C(CCCc1oc(-n2cnc3ccccc32)nc1-c1ccc(Cl)cc1)Nc1ccc(S(=O)(=O)Nc2nccs2)cc1 [Example 104, 4-[2-(1H-benzimidazol-1-yl)-4-(4-chlorophenyl)-5-oxazolyl]-N-(4-{[(2-thiazolyl)amino]sulfonyl}phenyl)butanamide] | 243 to 244 °C
26 | CN(C)c1ccc(NC(=O)CCc2oc(-n3cnc4ccccc43)nc2-c2ccc(Cl)cc2)cc1 [Example 130, 3-[2-(1H-benzimidazol-1-yl)-4-(4-chlorophenyl)-5-oxazolyl]-N-[4-(dimethylamino)phenyl]propionamide] | 212 to 214 °C
27 | O=C(CCc1oc(-c2ccccc2)nc1-c1ccc(Cl)cc1)Nc1ccc(C(=O)O)cc1 [Example 63, 4-({3-[4-(4-chlorophenyl)-2-phenyl-5-oxazolyl]propanoyl}amino)benzoic acid] | 243 to 244 °C
28 | NC(=O)c1ccc(NC(=O)CCc2oc(-c3ccccc3)nc2-c2ccc(Cl)cc2)cc1 [Example 66, 4-({3-[4-(4-chlorophenyl)-2-phenyl-5-oxazolyl]propanoyl}amino)benzamide] | 268 to 269 °C
29 | CCOP(=O)(Cc1ccc(NC(=O)CCCc2oc(-n3cnc4ccccc43)nc2-c2ccc(Cl)cc2)c(C)c1)OCC | 118 to 119 °C

Other lines, results leading:

Row | melting point | SMILES
30 | 188 to 189 °C | O=C(CCc1oc(-n2cnc3ccccc32)nc1-c1ccc(Cl)cc1)NCc1ccc(F)c(Cl)c1 [Example 173, 3-[2-(1H-benzimidazol-1-yl)-4-(4-chlorophenyl)-5-oxazolyl]-N-(3-chloro-4-fluorobenzyl)propionamide]
31 | 204 to 206 °C | O=C(CCc1oc(-n2cnc3ccccc32)nc1-c1ccc(Cl)cc1)NC1CCC(O)CC1 (centres unmarked) [Example 304, 3-[2-(1H-benzoimidazol-1-yl)-4-(4-chlorophenyl)-5-oxazolyl]-N-(4-hydroxycyclohexyl)propanamide]
32 | 200 to 201 °C | Cc1cc(Cl)ccc1CNC(=O)CCc1oc(-n2cnc3ccccc32)nc1-c1ccc(Cl)cc1 [Example 178, 3-[2-(1H-benzimidazol-1-yl)-4-(4-chlorophenyl)-5-oxazolyl]-N-(4-chloro-2-methylbenzyl)propionamide]
33 | 182 to 183 °C | O=C(CCc1oc(-n2cnc3ccccc32)nc1-c1ccc(Cl)cc1)N1CCC(O)CC1 [Example 192, 1-{3-[2-(1H-benzimidazol-1-yl)-4-(4-chlorophenyl)-5-oxazolyl]propanoyl}-4-piperidinol]
34 | 97 to 98 °C | O=C(CCc1oc(-n2cnc3ccccc32)nc1-c1cccc(Cl)c1)N1CCC(O)CC1 [Example 257, 1-{3-[2-(1H-benzoimidazol-1-yl)-4-(3-chlorophenyl)-5-oxazolyl]propanoyl}-4-piperidinol]
35 | 217 to 219 °C | Cc1ccc(Cl)cc1CNC(=O)CCc1oc(-n2cnc3ccccc32)nc1-c1ccc(Cl)cc1 [Example 176, 3-[2-(1H-benzimidazol-1-yl)-4-(4-chlorophenyl)-5-oxazolyl]-N-(5-chloro-2-methylbenzyl)propionamide]
36 | 205 to 206 °C | O=C(CCc1oc(-n2cnc3ccccc32)nc1-c1ccc(Cl)cc1)NCc1ccc(Br)cc1 [Example 172, 3-[2-(1H-benzimidazol-1-yl)-4-(4-chlorophenyl)-5-oxazolyl]-N-(4-bromobenzyl)propionamide]
37 | 193 to 194 °C | Cc1ccc(CNC(=O)CCc2oc(-c3ccccc3)nc2-c2ccc(Cl)cc2)cc1 [Example 166, 3-[4-(4-chlorophenyl)-2-phenyl-5-oxazolyl]-N-(4-methylbenzyl)propionamide]
38 | 225 to 227 °C | NS(=O)(=O)c1ccc(CNC(=O)CCc2oc(-c3ccccc3)nc2-c2ccc(Cl)cc2)cc1 [Example 165, N-[4-(aminosulfonyl)benzyl]-3-[4-(4-chlorophenyl)-2-phenyl-5-oxazolyl]propionamide]
39 | 136 to 137 °C | O=C(CCc1oc(-n2cnc3ccccc32)nc1-c1ccc(Cl)cc1)N1CCS(=O)(=O)C1 [Example 344, 3-{3-[2-(1H-benzoimidazol-1-yl)-4-(4-chlorophenyl)-5-oxazolyl]propanoyl}thiazolidine-1,1-dioxide]
40 | 188 to 189 °C | O=C(CCc1sc(-n2cnc3ccccc32)nc1-c1ccc(Cl)cc1)NCc1cc(Br)ccc1F [Example 202, 3-[2-(1H-benzimidazol-1-yl)-4-(4-chlorophenyl)-5-thiazolyl]-N-(5-bromo-2-fluorobenzyl)propionamide]
41 | 190 to 191 °C | O=C(CCc1oc(-n2cnc3ccccc32)nc1-c1ccc(Cl)cc1)NCc1ccc(F)cc1F [Example 160, 3-[2-(1H-benzimidazol-1-yl)-4-(4-chlorophenyl)-5-oxazolyl]-N-(2,4-difluorobenzyl)propionamide]
